From PMC12045974, “T cell toxicity induced by tigecycline binding to the mitochondrial ribosome” (Nature Communications, 2025)
“And” between values parts separate entries of the source, which are not always exact repeats. Identical values can stand only once.

Key:
[1] = system: CD4+ and CD8+ T cells within PBMCs; assay: T cell proliferation by flow cytometry (CTV/CFSE dilution) in stimulated PBMCs; assay type: cell-based, human
Method: After thawing frozen PBMCs, cells were washed with RPMI complemented with 10% FBS, 2.05 mM L-glutamine (Sigma), and 55 μM 2-ME (Gibco) and rested at 37 °C (5% CO2) for 30 min. 250,000 cells per well were seeded in 96-well U-bottom plates with/without Human T-Activator CD3/CD28 beads (Invitrogen) at a 1:1 ratio and 10 ng/ml IL-2 (Proteintech) in RPMI-1640 medium mentioned above. At the same time, antibiotics were added. For the short-term activation assay, cells were harvested 18 h post-stimulation and stained with Aqua fixable live/dead dye (Invitrogen) and surface markers. For the proliferation assays, cells were stained with CFSE (eBioscience) or Cell Trace Violet (ThermoFisher Scientific) dyes before seeding and stimulation, according to the manufacturer’s recommendations. For TCR priming experiments, tigecycline was added at 0, 24 or 72 h post-activation. For mitochondrial mass measuring, cells were stained with Mitotracker Green Fm Dye (Thermo Fisher Scientific) after incubation with Tigecycline. After incubation for 6 days with a half medium (complete, with antibiotics and IL-2) change after 3 days, cells were harvested via centrifugation, and stained with live/dead dye and surface markers for analysis by flow cytometry. The Foxp3/Transcription Factor Staining Buffer Set (Invitrogen) was used to fix cells according to the manufacturer’s instructions. The FACS gating strategy is shown in Supplementary Fig. 2D. Flow cytometry was carried out on a BD Celesta (BD Biosciences) and analyzed in FlowJo (TreeStar) software.

[2] = system: PBMCs; assay: Extracellular metabolic flux assay (Seahorse Mito Stress Test, OCR and ECAR); assay type: cell-based, human; conditions: for glycolysis rates: vs untreated stimulated controls; for ATP coupled OCR / Basal OCR / Maximal OCR / Spare capacity OCR: PBMC, per donor
Method: The Seahorse XFe96 Analyzer (Seahorse Bioscience) was used to measure oxygen consumption rate (OCR) and extracellular acidification rate (ECAR) in human PBMCs. 1.5 × 10^6 cells/well were seeded in 24-well plates and stimulated using plate-bound anti-CD3 antibody (2 μg/ml, clone OKT3, BD Biosciences), soluble anti-CD28 antibody (0.5 μg/ml, clone CD28.2, Biolegend) and IL-2 (10 ng/ml, Proteintech) in RPMI-1640 (with 10% FBS, 2.05 mM L-glutamine (Sigma), and 55 μM 2-ME (Gibco)). Cells were treated with or without 5 and 10 µM Tigecycline for 6 days with a half medium change after 3 days. After treatment, cells were washed with Seahorse XF RPMI assay medium, and then 200,000 cells per well were seeded (in triplicate) in 40 μl assay medium in XF 96-well cell culture microplate coated with poly-D-lysine (Sigma). The plate was centrifuged at 300 g for 5 s with no brake, rotated 180 °, and centrifuged again for 5 s at 300 x g. After centrifugation, 140 μl of assay medium was added per well and the plate was left to stabilize in a 37 °C, non-CO2 incubator for 40 min. During seahorse, wells were sequentially injected with compounds to achieve final concentrations of […] oligomycin (Sigma); 2 μM FCCP (Sigma); 0.5 μM rotenone (Sigma) together with 0.5 μM antimycin A (Sigma). OCR was measured for each well three times, every three min, before and after each injection. OCR was normalized to protein concentration using a BCA Protein Assay kit (ThermoFisher Scientific) conducted according to the manufacturer’s instructions.

CN(C)c1cc(NC(=O)CNC(C)(C)C)c(O)c2c1C[C@H]1C[C@H]3[C@H](N(C)C)C(O)=C(C(N)=O)C(=O)[C@@]3(O)C(O)=C1C2=O [Tigecycline, tigecycline]
T cell culture proliferation ([1]; 10 μM administered 24 or 72 h after TCR stimulation): significantly reduce | T cell proliferation ([1]; CD4+ and CD8+ T cells within PBMCs, 6 days of anti-CD3/CD28 stimulation + IL-2): dose-dependent reductions in proliferation | % Cells in division 4 or later ([1]; CD4, 0H): 0.15% and 0.18% and 0.39% | % Cells in each division ([1]; CD4, 0H, division number 1): 23.9% and 13% and 15.5% | % Cells in each division ([1]; CD4, 0H, division number 2): 20.2% and 38.4% and 32.9% | % Cells in each division ([1]; CD4, 0H, division number 4): 0.42% and 2.83% and 5.88% | % Cells in each division ([1]; CD4, 0H, division number 5): 0% and 0.019% and 0.22% | % Cells in each division ([1]; CD4, 0H, division number 6): 0% | % Cells in each division ([1]; CD4, 0H, division number 7): 0% | % Cells in division 4 or later ([1]; CD4, 10μM, 6 days, CTV dilution in live cells): 6.485% and 4.27% and 0.862% and 2.104% and 3.325% | % Cells in division 4 or later ([1]; CD4, 24H): 0.21% and 0.19% and 0.9% | % Cells in each division ([1]; CD4, 24H, division number 2): 18.2% and 32.4% and 28.8% | % Cells in each division ([1]; CD4, 24H, division number 5): 0.044% and 0.15% and 0.38% | % Cells in each division ([1]; CD4, 24H, division number 6): 0% and 0.01% | % Cells in each division ([1]; CD4, 24H, division number 7): 0% | % Cells in each division ([1]; CD4, 72H, division number 3): 22.6% and 24.4% and 18.1% | % Cells in each division ([1]; CD4, 72H, division number 6): 1.08% and 0.32% and 1.2% | % Cells in each division ([1]; CD4, 72H, division number 7): 0% | % Cells in division 4 or later ([1]; CD8, 0H): 0.42% and 2.88% and 6.11% | % Cells in each division ([1]; CD8, 0H, division number 1): 38.7% and 31.7% | % Cells in each division ([1]; CD8, 0H, division number 2): 25.1% and 40.8% and 45.6% | % Cells in each division ([1]; CD8, 0H, division number 3): 4.86% and 6.4% and 12.3% | % Cells in each division ([1]; CD8, 0H, division number 4): 0.15% and 0.18% and 0.36% | % Cells in each division ([1]; CD8, 0H, division number 5): 0% and 0.019% | % Cells in each division ([1]; CD8, 0H, division number 6): 0% | % Cells in each division ([1]; CD8, 0H, division number 7): 0% | % Cells in division 4 or later ([1]; CD8, 2.5μM, 6 days, CTV dilution in live cells): 47.18% and 43.35% and 55.18% and 63.83% and 48.432% | % Cells in division 4 or later ([1]; CD8, 10μM, 6 days, CTV dilution in live cells): 6.12% and 2.26% and 7.121% and 11.81% and 6.155% | % Cells in each division ([1]; CD8, 24H, division number 1): 36.2% and 37.7% and 34% | % Cells in each division ([1]; CD8, 24H, division number 2): 22.1% and 39.5% and 41.6% | % Cells in each division ([1]; CD8, 24H, division number 3): 4.04% and 8.22% and 12.9% | % Cells in each division ([1]; CD8, 24H, division number 4): 0.19% and 0.87% | % Cells in each division ([1]; CD8, 24H, division number 5): 0.018% and 0% and 0.019% | % Cells in each division ([1]; CD8, 24H, division number 6): 0% | % Cells in each division ([1]; CD8, 24H, division number 7): 0% | % Cells in each division ([1]; CD8, 72H, division number 0): 1.06% and 7.49% and 1.18% | % Cells in each division ([1]; CD8, 72H, division number 2): 24.9% and 34.1% and 20.9% | % Cells in each division ([1]; CD8, 72H, division number 3): 45.1% and 28.9% and 40.2% | % Cells in each division ([1]; CD8, 72H, division number 5): 2.16% and 0.67% and 3.66% | % Cells in each division ([1]; CD8, 72H, division number 6): 0.03% and 0.025% and 0.033% | % Cells in each division ([1]; CD8, 72H, division number 7): 0% | glycolysis rates ([2]; 5 uM treatment): trended towards an increase | glycolysis rates ([2]; 10 uM treatment): trended towards being decreased | ATP coupled OCR ([2]; 5um): 0.02281 pmol/min/Norm. ug protein and -0.09216 pmol/min/Norm. ug protein and -0.102 pmol/min/Norm. ug protein and -0.498 pmol/min/Norm. ug protein | Basal OCR ([2]; 5um): -0.181 pmol/min/Norm. ug protein and -0.2066 pmol/min/Norm. ug protein and 0.2924 pmol/min/Norm. ug protein and 0.06036 pmol/min/Norm. ug protein | Maximal OCR ([2]; 5um): 0.6209 pmol/min/Norm. ug protein and 0.08625 pmol/min/Norm. ug protein and 0.8496 pmol/min/Norm. ug protein and -0.7482 pmol/min/Norm. ug protein | Spare capacity OCR ([2]; 5um): 0.2929 pmol/min/Norm. ug protein and 0.5571 pmol/min/Norm. ug protein and -0.8086 pmol/min/Norm. ug protein | ATP coupled OCR ([2]; 10um): -0.2018 pmol/min/Norm. ug protein and -0.1474 pmol/min/Norm. ug protein and -0.3438 pmol/min/Norm. ug protein and 0.00593 pmol/min/Norm. ug protein | Basal OCR ([2]; 10um): -0.1538 pmol/min/Norm. ug protein and -0.01961 pmol/min/Norm. ug protein and -0.5181 pmol/min/Norm. ug protein and 0.03583 pmol/min/Norm. ug protein | Maximal OCR ([2]; 10um): 0.1774 pmol/min/Norm. ug protein and 0.3784 pmol/min/Norm. ug protein and -0.2836 pmol/min/Norm. ug protein and 0.05421 pmol/min/Norm. ug protein | Spare capacity OCR ([2]; 10um): 0.398 pmol/min/Norm. ug protein and 0.2345 pmol/min/Norm. ug protein and 0.01838 pmol/min/Norm. ug protein | glycolysis (ECAR) ([2]; stimulated PBMCs, 5 and 10 μM, 6 days): did not observe a major compensatory increase in glycolysis | basal, ATP-coupled, maximal and spare oxygen consumption rates ([2]; stimulated PBMCs, 5 and 10 μM, 6 days after stimulation): reduced
